Data from ChEMBL document CHEMBL1147236, “Semiplenamides A-G, fatty acid amides from a Papua New Guinea collection of the marine cyanobacterium Lyngbya semiplena” (J Nat Prod, 2003).

Legend:
[1] = Toxicity in Artemia salina after 24 hrs; type: organism-based; conditions: in vivo, read-out: LD50
Cannabinoid receptor 1 = Cannabinoid receptor 1 (Rattus norvegicus, UniProt P20272); experiment: Displacement of [3H]SR141716A from CB1 receptor in CD rat brain membranes; type: cell membranes, Membrane
[2] = Inhibition of AMT in rat RBL-2H3 cells assessed as [14C]anandamide uptake; type: cell-based

Chain of Cannabinoid receptor 1 (P20272 whole entry): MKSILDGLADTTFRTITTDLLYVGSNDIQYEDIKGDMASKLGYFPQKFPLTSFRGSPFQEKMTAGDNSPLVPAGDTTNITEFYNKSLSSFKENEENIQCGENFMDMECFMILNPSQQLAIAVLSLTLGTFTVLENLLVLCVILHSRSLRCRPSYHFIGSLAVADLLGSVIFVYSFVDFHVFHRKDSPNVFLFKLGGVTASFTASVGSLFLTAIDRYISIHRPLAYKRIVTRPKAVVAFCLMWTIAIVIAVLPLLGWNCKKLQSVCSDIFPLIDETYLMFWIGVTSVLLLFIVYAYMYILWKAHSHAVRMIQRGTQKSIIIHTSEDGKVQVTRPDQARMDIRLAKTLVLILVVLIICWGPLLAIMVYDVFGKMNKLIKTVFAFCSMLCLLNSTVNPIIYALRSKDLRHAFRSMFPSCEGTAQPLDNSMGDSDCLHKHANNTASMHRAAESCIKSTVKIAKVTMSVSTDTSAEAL

Compound	LC50 at 24 h [1] [µM]	Ki (Cannabinoid receptor 1) [µM]	IC50 [2] [µM]
CCCCCCCCCCCCC/C=C(\C)C(=O)N[C@@H](C)CO [SEMIPLENAMIDE C]	1.5		
CCCCCCCCCCCCCCC[C@H]1O[C@]1(C)C(=O)NC(C)COC(C)=O (stereo partly specified) [SEMIPLENAMIDE G]	2.4	17.9	
CCCCCCCCCCCCC/C=C/CC/C=C(\C)C(=O)NCCOC(C)=O [SEMIPLENAMIDE B]	2.5	18.7	
CCCCCCCCCCCCCCC/C=C(\C)C(=O)N[C@@H](C)COC(C)=O [SEMIPLENAMIDE E]	19		
CCCCCCCCCCCCC/C=C/CC/C=C(\C)C(=O)NCCO [SEMIPLENAMIDE A]	1.4	19.5	18.1
CCCCCCCCCCCCCCCCC/C=C(\C)C(=O)N[C@@H](C)COC(C)=O [SEMIPLENAMIDE D]	18		
CCCCCCCCCCCCCCC[C@H]1O[C@]1(C)C(=O)NC(C)CO (stereo partly specified) [SEMIPLENAMIDE F]	1.4		
